In US12084437B2, “Halo-substituted piperidines as orexin receptor modulators” (AstraZeneca AB, priority 2016, dated 2024):

What was measured:
OX2 = target: T1, OX2 (Homo sapiens, UniProt O43614); test: Orexin receptor cell-based functional assay, [Ca2+]i by FLIPR, CHO-OX2 cells; details: FLIPR calcium, antagonism of EC90 of [OX]
T1 construct: expressed in transfected cells; host or cells: CHO (CHO-OX2)
T1 sequence (O43614 1-444): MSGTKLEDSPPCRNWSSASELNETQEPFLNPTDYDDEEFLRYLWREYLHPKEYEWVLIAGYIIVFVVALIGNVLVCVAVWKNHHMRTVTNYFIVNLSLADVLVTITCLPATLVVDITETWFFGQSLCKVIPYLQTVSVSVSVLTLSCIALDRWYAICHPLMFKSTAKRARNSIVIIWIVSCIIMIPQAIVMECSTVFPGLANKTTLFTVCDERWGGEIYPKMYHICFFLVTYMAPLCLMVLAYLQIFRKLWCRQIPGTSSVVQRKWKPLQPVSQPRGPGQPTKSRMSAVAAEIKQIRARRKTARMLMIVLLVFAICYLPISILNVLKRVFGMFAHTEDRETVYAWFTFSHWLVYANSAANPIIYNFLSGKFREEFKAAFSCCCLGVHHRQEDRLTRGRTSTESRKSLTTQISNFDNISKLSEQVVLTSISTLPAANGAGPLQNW
Summary of the method: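 CHO cells expressing human OX1 or OX2 (20,000/well, grown overnight) were loaded with Calcium6 dye plus 2.5 mM probenecid for 2 h at 37 °C, then preincubated 30 min with compound (0.1 nM–10 µM). FLIPR fluorescence (ex 488/em 540 nm) was tracked before and after an EC90 orexin challenge.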

OX1 = target: T2, OX1 (Homo sapiens, UniProt O43613); test: Orexin receptor cell-based functional assay, [Ca2+]i by FLIPR, CHO-OX1 cells; details: FLIPR calcium, antagonism of EC90 of [OX], read-out: OXI, IC50
T2 construct: expressed in transfected cells; host or cells: CHO (CHO-OX1)
T2 sequence (O43613 1-425): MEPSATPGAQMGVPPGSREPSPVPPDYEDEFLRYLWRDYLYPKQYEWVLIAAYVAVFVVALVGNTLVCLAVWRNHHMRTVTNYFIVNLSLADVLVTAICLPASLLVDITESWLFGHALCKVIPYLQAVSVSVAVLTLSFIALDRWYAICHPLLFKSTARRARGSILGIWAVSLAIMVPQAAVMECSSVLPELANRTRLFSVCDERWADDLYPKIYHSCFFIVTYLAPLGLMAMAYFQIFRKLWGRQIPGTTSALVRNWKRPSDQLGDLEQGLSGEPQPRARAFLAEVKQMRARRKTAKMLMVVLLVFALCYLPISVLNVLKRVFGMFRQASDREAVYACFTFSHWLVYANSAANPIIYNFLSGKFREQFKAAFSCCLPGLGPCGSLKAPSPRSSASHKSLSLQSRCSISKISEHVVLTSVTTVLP

| SMILES | IC50 (OX2) [nM] | IC50 (OX1) [nM] |
| --- | --- | --- |
| Cc1ccc(-c2ncccn2)c(C(=O)N2CC(F)(F)C[C@@H](C)[C@H]2CNc2ccc(C(F)(F)F)cn2)n1 [Compound 183, ((2S,3R)-5,5-difluoro-3-methyl-2-(((5-(trifluoromethyl)pyridin-2-yl)amino)methyl)piperidin-1-yl)(6-methyl-3-(pyrimidin-2-yl)pyridin-2-yl)methanone] | > 5000 | 12 |
| Cc1ccc(-c2sc(C)nc2C(=O)N2CC(F)(F)C[C@@H](C)[C@H]2CNc2ccc(C(F)(F)F)cn2)cc1 [Compound 186] | > 5000 | 6 |
| Cc1cccc(-c2sc(C)nc2C(=O)N2CC(F)(F)C[C@@H](C)[C@H]2CNc2ccc(C(F)(F)F)cn2)c1 [Compound 187] | 3000 | 7 |
| C[C@@H]1CC(F)(F)CN(C(=O)c2nn(C)cc2-c2ncccn2)[C@@H]1CNc1ccc(C(F)(F)F)cn1 [Compound 200, ((2S,3R)-5,5-difluoro-3-methyl-2-(((5-(trifluoromethyl)pyridin-2-yl)amino)methyl)piperidin-1-yl)(1-methyl-4-(pyrimidin-2-yl)-1H-pyrazol-3-yl)methanone] | > 5000 | 4 |
| COc1ccc(-n2nccn2)c(C(=O)N2CC(F)(F)C[C@@H](C)[C@H]2CNc2ccc(C(F)(F)F)cn2)n1 [Compound 202, ((2S,3R)-5,5-difluoro-3-methyl-2-(((5-(trifluoromethyl)pyridin-2-yl)amino)methyl)piperidin-1-yl)(6-methoxy-3-(2H-1,2,3-triazol-2-yl)pyridin-2-yl)methanone] | > 5000 | 150 |
| C[C@@H]1CC(F)(F)CN(C(=O)c2nc(C(F)(F)F)ccc2-n2nccn2)[C@@H]1CNc1ccc(C(F)(F)F)cn1 [Compound 203, (3-(2H-1,2,3-triazol-2-yl)-6-(trifluoromethyl)pyridin-2-yl)((2S,3R)-5,5-difluoro-3-methyl-2-(((5-(trifluoromethyl)pyridin-2-yl)amino)methyl)piperidin-1-yl)methanone] | 3700 | > 5000 |
| Cc1ccc(-n2nccn2)c(C(=O)N2CC(F)(F)C[C@@H](C)[C@H]2COc2ccc(C(F)(F)F)cn2)n1 [Compound 204, ((2S,3R)-5,5-difluoro-3-methyl-2-(((5-(trifluoromethyl)pyridin-2-yl)oxy)methyl)piperidin-1-yl)(6-methyl-3-(2H-1,2,3-triazol-2-yl)pyridin-2-yl)methanone] | > 5000 | 40 |
| C[C@@H]1CC(F)(F)CN(C(=O)c2nn(C)cc2-c2ccc(F)cc2)[C@@H]1COc1ccc(C(F)(F)F)cn1 [Compound 205, ((2S,3R)-5,5-difluoro-3-methyl-2-(((5-(trifluoromethyl)pyridin-2-yl)oxy)methyl)piperidin-1-yl)(4-(4-fluorophenyl)-1-methyl-1H-pyrazol-3-yl)methanone] | > 5000 | 52 |
| C[C@@H]1CC(F)(F)CN(C(=O)c2cn(C)nc2-c2ccccc2)[C@@H]1COc1ncc(C(F)(F)F)cn1 [Compound 209] | > 5000 | 280 |
| Cc1ccc(-c2ncccn2)c(C(=O)N2CC(F)(F)C[C@@H](C)[C@H]2COc2ccc(C(F)(F)F)cn2)n1 [Compound 215, ((2S,3R)-5,5-difluoro-3-methyl-2-(((5-(trifluoromethyl)pyridin-2-yl)oxy)methyl)piperidin-1-yl)(6-methyl-3-(pyrimidin-2-yl)pyridin-2-yl)methanone] | > 5000 | 5 |
| C[C@@H]1CC(F)(F)CN(C(=O)c2cc(Cl)ccc2-c2nnn(C)n2)[C@@H]1COc1ccc(C(F)(F)F)cn1 [Compound 216, (5-chloro-2-(2-methyl-2H-tetrazol-5-yl)phenyl)((2S,3R)-5,5-difluoro-3-methyl-2-(((5-(trifluoromethyl)pyridin-2-yl)oxy)methyl)piperidin-1-yl)methanone] | > 5000 | 4 |
| C[C@@H]1CC(F)(F)CN(C(=O)c2nn(C)cc2-c2ncc(F)cn2)[C@@H]1CNc1ncc(C(F)(F)F)cn1 [Compound 217, ((2S,3R)-5,5-difluoro-3-methyl-2-(((5-(trifluoromethyl)pyrimidin-2-yl)amino)methyl)piperidin-1-yl)(4-(5-fluoropyrimidin-2-yl)-1-methyl-1H-pyrazol-3-yl)methanone] | > 5000 | 4 |
| C[C@@H]1CC(F)(F)CN(C(=O)c2nn(C)cc2-c2ncc(Cl)cn2)[C@@H]1CNc1ncc(C(F)(F)F)cn1 [Compound 218, (4-(5-chloropyrimidin-2-yl)-1-methyl-1H-pyrazol-3-yl)((2S,3R)-5,5-difluoro-3-methyl-2-(((5-(trifluoromethyl)pyrimidin-2-yl)amino)methyl)piperidin-1-yl)methanone] | > 5000 | 7 |
| Cc1cnc(-c2cn(C)nc2C(=O)N2CC(F)(F)C[C@@H](C)[C@H]2CNc2ncc(C(F)(F)F)cn2)nc1 [Compound 219, ((2S,3R)-5,5-difluoro-3-methyl-2-(((5-(trifluoromethyl)pyrimidin-2-yl)amino)methyl)piperidin-1-yl)(1-methyl-4-(5-methylpyrimidin-2-yl)-1H-pyrazol-3-yl)methanone] | > 5000 | 120 |
| C[C@@H]1CC(F)(F)CN(C(=O)c2nn(C)cc2-c2ccccn2)[C@@H]1COc1ccc(C(F)(F)F)cn1 [Compound 220, ((2S,3R)-5,5-difluoro-3-methyl-2-(((5-(trifluoromethyl)pyridin-2-yl)oxy)methyl)piperidin-1-yl)(1-methyl-4-(pyridin-2-yl)-1H-pyrazol-3-yl)methanone] | > 5000 | 8 |
| C[C@@H]1CC(F)(F)CN(C(=O)c2nn(C)cc2-c2ccc(Cl)cn2)[C@@H]1CNc1ncc(C(F)(F)F)cn1 [Compound 221, (4-(5-chloropyridin-2-yl)-1-methyl-1H-pyrazol-3-yl)((2S,3R)-5,5-difluoro-3-methyl-2-(((5-(trifluoromethyl)pyrimidin-2-yl)amino)methyl)piperidin-1-yl)methanone] | > 5000 | 2 |
| C[C@@H]1CC(F)(F)CN(C(=O)c2nn(C)cc2-c2ncccn2)[C@@H]1COc1ncc(C(F)(F)F)cn1 [Compound 222, ((2S,3R)-5,5-difluoro-3-methyl-2-(((5-(trifluoromethyl)pyrimidin-2-yl)oxy)methyl)piperidin-1-yl)(1-methyl-4-(pyrimidin-2-yl)-1H-pyrazol-3-yl)methanone] | > 5000 | 26 |
| C[C@@H]1CC(F)(F)CN(C(=O)c2nn(C)cc2-c2ncccn2)[C@@H]1COc1cnc(C(F)(F)F)cn1 [Compound 223, ((2S,3R)-5,5-difluoro-3-methyl-2-(((5-(trifluoromethyl)pyrazin-2-yl)oxy)methyl)piperidin-1-yl)(1-methyl-4-(pyrimidin-2-yl)-1H-pyrazol-3-yl)methanone] | > 5000 | 52 |
| C[C@@H]1CC(F)(F)CN(C(=O)c2nn(C)cc2-c2cnccn2)[C@@H]1CNc1ncc(C(F)(F)F)cn1 [Compound 224, ((2S,3R)-5,5-difluoro-3-methyl-2-(((5-(trifluoromethyl)pyrimidin-2-yl)amino)methyl)piperidin-1-yl)(1-methyl-4-(pyrazin-2-yl)-1H-pyrazol-3-yl)methanone] | > 5000 | 62 |
| Cc1ccnc(-c2cn(C)nc2C(=O)N2CC(F)(F)C[C@@H](C)[C@H]2CNc2ncc(C(F)(F)F)cn2)n1 [Compound 225, ((2S,3R)-5,5-difluoro-3-methyl-2-(((5-(trifluoromethyl)pyrimidin-2-yl)amino)methyl)piperidin-1-yl)(1-methyl-4-(4-methylpyrimidin-2-yl)-1H-pyrazol-3-yl)methanone] | > 5000 | 17 |
| C[C@@H]1CC(F)(F)CN(C(=O)c2nn(C)cc2-c2ncc(C(F)(F)F)cn2)[C@@H]1CNc1ncc(C(F)(F)F)cn1 [Compound 226, ((2S,3R)-5,5-difluoro-3-methyl-2-(((5-(trifluoromethyl)pyrimidin-2-yl)amino)methyl)piperidin-1-yl)(1-methyl-4-(5-(trifluoromethyl)pyrimidin-2-yl)-1H-pyrazol-3-yl)methanone] | > 5000 | 350 |
| C[C@@H]1CC(F)(F)CN(C(=O)c2nn(C)cc2-c2cc(Cl)ccn2)[C@@H]1CNc1ncc(C(F)(F)F)cn1 [Compound 227, (4-(4-chloropyridin-2-yl)-1-methyl-1H-pyrazol-3-yl)((2S,3R)-5,5-difluoro-3-methyl-2-(((5-(trifluoromethyl)pyrimidin-2-yl)amino)methyl)piperidin-1-yl)methanone] | > 5000 | 14 |
